Results: patent publication US12168019B1, “8-hydroxy quinoline derivatives for enhancing telomerase reverse transcriptase (TERT) expression” (Sierra Sciences, Inc., priority 2010, dated 2024)

Assays:
[1] = tested on: human TERT expression (hTERT mRNA transcripts); assay: Quantitative real-time RT-PCR of hTERT mRNA transcripts in compound-treated cells; assay type: cell-based
From the text: Telomerase is a ribonucleoprotein complex composed of the catalytic protein subunit (human telomerase reverse transcriptase or hTERT) and the RNA template. hTERT expression level can be measured by PCR.
Quantitative Reverse Transcription PCR can be run according to procedures outlined in Yajima et al. (Yajima, T. et al. Quantitative Reverse Transcription-PCR Assay of the RNA Component of Human Telomerase Using the TaqMan Fluorogenic Detection System Clinical Chemistry, 44:12, 2441-2445, 1998).
The principle of real-time PCR was first described by Heid et al. (Heid C. A., Stevens J., Livak K. J., Williams P. M. Real time quantitative PCR. Genome Res., 6: 986-994, 1996). Briefly, amplification of the target sequence is monitored per PCR cycle by detecting the fluorescence signal emitted by an internal probe that is degraded by the 5′ nuclease activity of the Taq polymerase. The emission signal accumulates in each sample, and the Ct required to reach a given fluorescence threshold is determined (Ct stands for Cycle Threshold and is a measure of the number of PCR cycles that are required to amplify a target—thus, a lower Ct score means that there is more abundant hTERT mRNA). Thus, the C1 value of a sample inversely correlates to the quantity of the starting cDNA which correlates to the number of mRNA transcripts. Using the cDNA of known quantity, a standard curve can be generated and used to determine the starting amount of mRNA transcripts based on the […] of each sample.
Quantitative real-time PCR can be done on cDNA from test compound-treated and nontreated cells by use of a ABI Prism 7900 Sequence Detection System (PE Applied Biosystems, Foster City, CA) following the Assays-on-Demand protocol (PE Applied Biosystems, Foster City, CA). Quantitative data can be analyzed using the Sequence Detection System software version 2.1 (PE Applied Biosystems).
The following compounds were tested in assays designed to identify compounds that enhance human TERT expression. The compounds turned on human TERT expression in these assays.

[2] = tested on: viable cells in culture; assay: Cell viability assay (CellTiter-Glo Luminescent Cell Viability Assay, ATP quantitation); assay type: cell-based; details: percent of DMSO vehicle control
Experimental: Cell viability is determined using a homogeneous method, such as CellTiter-Glo® Luminescent Cell Viability Assay (Promega Corporation, Madison, WI) to determine the number of viable cells in culture These assays are based on quantitation of the ATP present, which signals the presence of metabolically active cells. Luminescent values of compound treated cells are compared to that of cells treated with vehicle alone to determine the average cell viability as a percent of control.
Note: test concentration or dose not given here.

Structure (SMILES): O=C(NC(c1ccc(Cl)cc1)c1ccc2cccnc2c1O)C1CCCCC1 (stereo not drawn) [Compound 1045]
- Average Number of hTERT Transcripts [1]: 13.86
- Average Cell Viability after 24 Hours (% DMSO) [2]: 60.3 % DMSO

Structure (SMILES): CC(=O)NC(c1cccs1)c1cc(Cl)c2cccnc2c1O (stereo not drawn) [Compound 1052]
- Average Number of hTERT Transcripts [1]: 12.07
- Average Cell Viability after 24 Hours (% DMSO) [2]: 60.8 % DMSO

Structure (SMILES): O=[N+]([O-])c1cc(CN2CCN(c3ccccc3)CC2)c(O)c2ncccc12 [Compound 1029]
- Average Number of hTERT Transcripts [1]: 5.3
- Average Cell Viability after 24 Hours (% DMSO) [2]: 32 % DMSO

Structure (SMILES): CCCOCc1cc(CN2CCCCC2)c(O)c2ncccc12 [Compound 1100]
- Average Number of hTERT Transcripts [1]: 9.12
- Average Cell Viability after 24 Hours (% DMSO) [2]: 56.1 % DMSO

Structure (SMILES): Cc1ccc(S(=O)(=O)Nc2ccc(O)c3ncccc23)cc1 [Compound 1091]
- Average Number of hTERT Transcripts [1]: 91.89
- Average Cell Viability after 24 Hours (% DMSO) [2]: 94.3 % DMSO

Structure (SMILES): COc1ccc(C(NC(=O)C(C)C)c2cc([N+](=O)[O-])c3cccnc3c2O)cc1 (stereo not drawn) [Compound 1073]
- Average Number of hTERT Transcripts [1]: 103.42
- Average Cell Viability after 24 Hours (% DMSO) [2]: 80.1 % DMSO

Structure (SMILES): CCC(=O)NC(c1ccc(OC)c(OC)c1)c1cc([N+](=O)[O-])c2cccnc2c1O (stereo not drawn) [Compound 1028]
- Average Number of hTERT Transcripts [1]: 65.66
- Average Cell Viability after 24 Hours (% DMSO) [2]: 80.69 % DMSO

Structure (SMILES): Oc1c(I)cc(I)c2cccnc12 [Compound 1018]
- Average Number of hTERT Transcripts [1]: 105.41
- Average Cell Viability after 24 Hours (% DMSO) [2]: 56.9 % DMSO

Structure (SMILES): O=C(NC(c1ccc2c(c1)OCO2)c1cc([N+](=O)[O-])c2cccnc2c1O)C1CCCCC1 (stereo not drawn) [Compound 1068]
- Average Number of hTERT Transcripts [1]: 21.41
- Average Cell Viability after 24 Hours (% DMSO) [2]: 61.2 % DMSO

Structure (SMILES): CC(=O)NC(c1ccccc1Cl)c1ccc2cccnc2c1O (stereo not drawn) [Compound 1025]
- Average Number of hTERT Transcripts [1]: 113.98
- Average Cell Viability after 24 Hours (% DMSO) [2]: 93.5 % DMSO

Structure (SMILES): CCCCC(=O)NC(c1ccc(O)c(OCC)c1)c1cc([N+](=O)[O-])c2cccnc2c1O (stereo not drawn) [Compound 1075]
- Average Number of hTERT Transcripts [1]: 83.26
- Average Cell Viability after 24 Hours (% DMSO) [2]: 82.63 % DMSO

Structure (SMILES): CCCCC(=O)NC(c1ccc2c(c1)OCO2)c1cc([N+](=O)[O-])c2cccnc2c1O (stereo not drawn) [Compound 1046]
- Average Number of hTERT Transcripts [1]: 158.46
- Average Cell Viability after 24 Hours (% DMSO) [2]: 78 % DMSO

Structure (SMILES): Cc1ccnc(NC(c2cccc([N+](=O)O)c2)c2ccc3ccc(C)nc3c2O)c1 (stereo not drawn) [Compound 1084]
- Average Number of hTERT Transcripts [1]: 11.54
- Average Cell Viability after 24 Hours (% DMSO) [2]: 65.08 % DMSO

Structure (SMILES): Cc1ccnc(NC(c2ccc([N+](=O)O)cc2)c2ccc3ccc(C)nc3c2O)c1 (stereo not drawn) [Compound 1081]
- Average Number of hTERT Transcripts [1]: 18.87
- Average Cell Viability after 24 Hours (% DMSO) [2]: 70.69 % DMSO

Structure (SMILES): Cc1ccc2ccc(C(Nc3ccccn3)c3cccc([N+](=O)[O-])c3)c(O)c2n1 (stereo not drawn) [Compound 1078]
- Average Number of hTERT Transcripts [1]: 36.96

Structure (SMILES): Oc1c(I)cc(Cl)c2cccnc12 [Compound 1021]
- Average Number of hTERT Transcripts [1]: 60.68

Structure (SMILES): Cc1ccc(S(=O)(=O)Nc2cc(S(=O)(=O)c3ccc(C)cc3)c(O)c3ncccc23)cc1 [Compound 1093]
- Average Number of hTERT Transcripts [1]: 160.48
- Average Cell Viability after 24 Hours (% DMSO) [2]: 66.5 % DMSO

Structure (SMILES): COc1ccc(C(=O)NC(/C=C/c2ccccc2)c2cc(Cl)c3cccnc3c2O)cc1 (stereo not drawn) [Compound 1016]
- Average Number of hTERT Transcripts [1]: 10.9

Structure (SMILES): Cc1cc(NC(c2ccccn2)c2ccc3cccnc3c2O)no1 (stereo not drawn) [Compound 1104]
- Average Number of hTERT Transcripts [1]: 19.27

Structure (SMILES): COc1ccc(C(NC(=O)C(C)C)c2cc([N+](=O)[O-])c3cccnc3c2O)cc1OC (stereo not drawn) [Compound 1112]
- Average Number of hTERT Transcripts [1]: 58.99

Structure (SMILES): COc1ccc(C(NC(C)=O)c2cc(Cl)c3cccnc3c2O)cc1OC (stereo not drawn) [Compound 1038]
- Average Number of hTERT Transcripts [1]: 28.95
- Average Cell Viability after 24 Hours (% DMSO) [2]: 80.33 % DMSO

Structure (SMILES): CCN(CC)Cc1ccc(O)c2ncccc12 [Compound 1096]
- Average Number of hTERT Transcripts [1]: 48.25

Structure (SMILES): O=C(NC(c1ccccc1)c1ccc2cccnc2c1O)c1ccccc1 (stereo not drawn) [Compound 1086]
- Average Number of hTERT Transcripts [1]: 48.77

Structure (SMILES): CCCC(=O)NC(c1ccc(O)c(OCC)c1)c1cc([N+](=O)[O-])c2cccnc2c1O (stereo not drawn) [Compound 1036]
- Average Number of hTERT Transcripts [1]: 65

Structure (SMILES): COCc1cc(CN2CCCC2)c(O)c2ncccc12 [Compound 1097]
- Average Number of hTERT Transcripts [1]: 77.36

Structure (SMILES): Oc1c(C(Nc2ccccn2)c2ccccc2Br)ccc2cccnc12 (stereo not drawn) [Compound 1007]
- Average Number of hTERT Transcripts [1]: 18.02
- Average Cell Viability after 24 Hours (% DMSO) [2]: 68 % DMSO

Structure (SMILES): CCN(CC)c1ccc(C(NC(=O)C(C)C)c2cc(Cl)c3cccnc3c2O)cc1 (stereo not drawn) [Compound 1011]
- Average Number of hTERT Transcripts [1]: 14.2
- Average Cell Viability after 24 Hours (% DMSO) [2]: 64.5 % DMSO

Structure (SMILES): COc1ccc(C(NC(=O)C2CCCCC2)c2cc([N+](=O)[O-])c3cccnc3c2O)cc1OC (stereo not drawn) [Compound 1072]
- Average Number of hTERT Transcripts [1]: 93.44

Structure (SMILES): Cc1ccnc(NC(c2cccc(Br)c2)c2ccc3ccc(C)nc3c2O)c1 (stereo not drawn) [Compound 1083]
- Average Number of hTERT Transcripts [1]: 18.44

Structure (SMILES): Oc1c(CN2CCN(c3cccc(Cl)c3)CC2)cc(Br)c2cccnc12 [Compound 1002]
- Average Number of hTERT Transcripts [1]: 14.79
- Average Cell Viability after 24 Hours (% DMSO) [2]: 57.7 % DMSO

Structure (SMILES): CCCC(=O)NC(c1ccc(Cl)cc1)c1cc([N+](=O)[O-])c2cccnc2c1O (stereo not drawn) [Compound 1044]
- Average Number of hTERT Transcripts [1]: 92.93

Structure (SMILES): CCCCC(=O)NC(c1cccs1)c1cc([N+](=O)[O-])c2cccnc2c1O (stereo not drawn) [Compound 1063]
- Average Number of hTERT Transcripts [1]: 205.2

Structure (SMILES): CC(=O)NC(c1cccs1)c1ccc2cccnc2c1O (stereo not drawn) [Compound 1058]
- Average Number of hTERT Transcripts [1]: 47.99

Structure (SMILES): CC(=O)NC(c1ccc(Br)cc1)c1ccc2cccnc2c1O (stereo not drawn) [Compound 1022]
- Average Number of hTERT Transcripts [1]: 60.01

Structure (SMILES): Cc1cc(C)n(-c2ccc3c(Cl)cc(Cl)c(O)c3n2)n1 [Compound 1079]
- Average Number of hTERT Transcripts [1]: 98.36
- Average Cell Viability after 24 Hours (% DMSO) [2]: 71.22 % DMSO

Structure (SMILES): O=C(CCc1ccccc1)NC(c1ccc(Cl)cc1)c1ccc2cccnc2c1O (stereo not drawn) [Compound 1109]
- Average Number of hTERT Transcripts [1]: 34.36

Structure (SMILES): Oc1c(Cl)cc(Cl)c2cccnc12 [Compound 1020]
- Average Number of hTERT Transcripts [1]: 45.03
- Average Cell Viability after 24 Hours (% DMSO) [2]: 25.1 % DMSO

Structure (SMILES): COc1cc(C(Nc2ccccn2)c2ccc3cccnc3c2O)cc(Br)c1OC (stereo not drawn) [Compound 1005]
- Average Number of hTERT Transcripts [1]: 55.17
- Average Cell Viability after 24 Hours (% DMSO) [2]: 64.8 % DMSO
